Data taken from paper PMC12377202, “Design, synthesis, and cytotoxic evaluation of quinazoline-based derivatives as VEGER-2 inhibitors: comparative study against EGFR kinase activity, induction of apoptosis, and molecular docking study” (RSC Advances, 2025).

Key:
[1] = test system: HEK-293; experiment: MTT cytotoxicity against normal cells; format: cell-based, human
[2] = MTT cytotoxicity against normal cells; format: cell-based, human; details: human
[3] = test system: K-562; experiment: MTT anti-proliferative assay, K-562; format: cell-based, human; details: Homo sapiens, K562
[4] = test system: HepG-2 cells; experiment: Cell cycle analysis (PI staining, flow cytometry); format: cell-based, human
Protocol: In order to cause cytotoxicity, anticancer medicines must stop cell division at specific checkpoints, which are discrete stages of the cell cycle.
Propidium iodide (PI) staining and flow cytometry analysis[74,75] were used to analyze the cell cycle for derivatives 8a and 9a, as illustrated in the SI.
(§1) through Flow cytometric analysis.
(§2) Pellets were collected again and incubated with
(§3) Total RNA from vehicle-treated
(§4) (Thermo Scientific, USA).
(§5) All experiments were performed in […]

[5] = test system: caspase-9; experiment: Caspase-9 expression level in HepG-2 cells; format: cell-based, human; details: for Caspase-9 ± SE: HepG-2, at IC50 concentrations, control 11.01
Protocol: (§6) All synthesized compounds were tested at their cytotoxic concentrations in HepG-2 cells for analysis of gene expression levels of apoptotic markers caspase-3, caspase-9, TNF-α, and IL-6 proteins, and only two active compounds were tested for BAX and Bcl-2 proteins.
as §1, §2, §3, §4, §5

[6] = test system: IL-6R; experiment: IL-6R level in HepG-2 cells; format: cell-based, human
Protocol: as §6, §1, §2, §3, §4, §5

[7] = test system: TNF-alpha; experiment: TNF-alpha level in HepG-2 cells; format: cell-based, human; details: control 43.48
Protocol: as §6, §1, §2, §3, §4, §5

[8] = test system: caspase-3; experiment: Caspase-3 expression level in HepG-2 cells; format: cell-based, human; details: for Caspase-3 ± SE: HepG-2, at IC50 concentrations, control 0.460
Protocol: as §6, §1, §2, §3, §4, §5

[9] = target: VEGFR-2 (Homo sapiens, UniProt P35968); experiment: In vitro VEGFR-2 inhibitory assay (ELISA kit); details: VEGFR-2 kinase
VEGFR-2, sequence (P35968 20-1356): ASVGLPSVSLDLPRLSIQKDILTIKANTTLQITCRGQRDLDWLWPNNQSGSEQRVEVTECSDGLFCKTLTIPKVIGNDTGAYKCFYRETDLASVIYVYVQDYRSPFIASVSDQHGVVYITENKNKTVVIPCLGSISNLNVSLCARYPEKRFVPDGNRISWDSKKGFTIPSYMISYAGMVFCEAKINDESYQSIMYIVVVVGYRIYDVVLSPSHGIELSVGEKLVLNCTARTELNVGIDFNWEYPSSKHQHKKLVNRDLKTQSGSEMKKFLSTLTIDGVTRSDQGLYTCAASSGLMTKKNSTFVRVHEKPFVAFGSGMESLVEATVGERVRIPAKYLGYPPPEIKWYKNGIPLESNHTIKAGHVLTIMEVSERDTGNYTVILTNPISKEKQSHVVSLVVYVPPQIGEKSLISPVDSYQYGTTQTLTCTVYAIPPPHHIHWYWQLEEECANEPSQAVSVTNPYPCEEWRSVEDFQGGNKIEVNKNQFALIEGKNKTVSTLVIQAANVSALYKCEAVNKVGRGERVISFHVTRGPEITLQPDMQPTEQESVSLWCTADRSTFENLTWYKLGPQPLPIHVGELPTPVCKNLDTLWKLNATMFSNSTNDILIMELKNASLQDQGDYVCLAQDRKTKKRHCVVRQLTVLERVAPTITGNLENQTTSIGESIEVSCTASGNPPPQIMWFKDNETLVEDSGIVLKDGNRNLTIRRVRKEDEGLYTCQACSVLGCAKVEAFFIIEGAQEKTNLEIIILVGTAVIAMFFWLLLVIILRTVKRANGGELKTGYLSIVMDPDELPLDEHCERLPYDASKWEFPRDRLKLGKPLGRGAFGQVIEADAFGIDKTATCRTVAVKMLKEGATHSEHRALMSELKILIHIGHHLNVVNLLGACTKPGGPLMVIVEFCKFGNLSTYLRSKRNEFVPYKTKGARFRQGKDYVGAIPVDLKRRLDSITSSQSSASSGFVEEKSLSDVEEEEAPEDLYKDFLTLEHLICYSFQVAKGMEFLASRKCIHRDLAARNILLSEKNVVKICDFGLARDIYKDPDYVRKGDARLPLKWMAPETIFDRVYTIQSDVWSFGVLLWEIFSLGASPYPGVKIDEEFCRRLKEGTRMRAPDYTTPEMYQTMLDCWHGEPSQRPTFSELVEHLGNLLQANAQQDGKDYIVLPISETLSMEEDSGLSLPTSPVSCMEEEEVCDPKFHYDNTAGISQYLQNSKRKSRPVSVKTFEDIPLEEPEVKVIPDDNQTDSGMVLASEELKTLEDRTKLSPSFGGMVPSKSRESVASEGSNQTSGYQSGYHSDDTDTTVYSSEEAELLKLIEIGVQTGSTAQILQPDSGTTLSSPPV

[10] = test system: HepG-2; experiment: MTT anti-proliferative assay, HepG-2; format: cell-based, human; details: Homo sapiens, HepG2
[11] = target: EGFR (Homo sapiens, UniProt P00533); experiment: EGFR kinase inhibition assay (ELISA kit)
EGFR, sequence (P00533 25-1210): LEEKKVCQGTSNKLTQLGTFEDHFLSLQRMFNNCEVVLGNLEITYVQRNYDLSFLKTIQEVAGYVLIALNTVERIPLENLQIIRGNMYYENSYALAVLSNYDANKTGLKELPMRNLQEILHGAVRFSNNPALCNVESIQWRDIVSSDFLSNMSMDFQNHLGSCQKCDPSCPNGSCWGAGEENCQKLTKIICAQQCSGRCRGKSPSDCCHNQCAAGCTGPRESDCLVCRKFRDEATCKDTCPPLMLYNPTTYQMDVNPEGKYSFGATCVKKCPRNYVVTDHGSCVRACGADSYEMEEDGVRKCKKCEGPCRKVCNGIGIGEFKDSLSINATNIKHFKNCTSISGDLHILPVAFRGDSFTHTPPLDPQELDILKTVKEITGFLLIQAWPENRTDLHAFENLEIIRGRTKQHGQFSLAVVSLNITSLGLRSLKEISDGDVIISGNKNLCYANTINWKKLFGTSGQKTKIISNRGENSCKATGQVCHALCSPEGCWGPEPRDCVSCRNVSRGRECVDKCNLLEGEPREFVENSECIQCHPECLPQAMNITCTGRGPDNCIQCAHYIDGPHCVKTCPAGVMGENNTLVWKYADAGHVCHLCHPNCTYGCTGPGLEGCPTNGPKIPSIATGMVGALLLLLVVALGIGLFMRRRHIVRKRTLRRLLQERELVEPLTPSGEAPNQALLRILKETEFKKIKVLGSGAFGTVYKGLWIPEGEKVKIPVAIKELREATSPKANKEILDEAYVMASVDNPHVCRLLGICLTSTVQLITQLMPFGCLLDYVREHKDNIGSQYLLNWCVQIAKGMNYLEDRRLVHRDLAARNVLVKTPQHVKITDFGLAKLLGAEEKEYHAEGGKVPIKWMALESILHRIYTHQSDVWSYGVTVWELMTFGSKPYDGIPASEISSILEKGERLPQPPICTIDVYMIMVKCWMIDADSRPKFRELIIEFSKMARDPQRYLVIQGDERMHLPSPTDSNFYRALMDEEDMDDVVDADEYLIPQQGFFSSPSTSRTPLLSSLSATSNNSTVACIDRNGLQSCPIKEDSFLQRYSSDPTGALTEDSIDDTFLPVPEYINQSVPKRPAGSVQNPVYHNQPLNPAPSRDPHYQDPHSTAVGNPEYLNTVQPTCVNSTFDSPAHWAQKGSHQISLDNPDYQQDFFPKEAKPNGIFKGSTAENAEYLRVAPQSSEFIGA

[12] = test system: MCF-7; experiment: MTT anti-proliferative assay, MCF-7; format: cell-based, human; details: Homo sapiens, MCF7

Activity % ([9]; HepG2): 33.564%
Inhibition % ([9]; HepG2): 66.436%
Activity % ([9]; K-562): 56.948%
Inhibition % ([9]; K-562): 43.052%
Activity % ([9]; MCF7): 80.680%
Inhibition % ([9]; MCF7): 19.320%
Activity % ([11]; HepG2): 52.262%
Inhibition % ([11]; HepG2): 47.738%
Activity % ([11]; K-562): 47.456%
Inhibition % ([11]; K-562): 52.544%
Activity % ([11]; MCF7): 25.292%
Inhibition % ([11]; MCF7): 74.708%
SMILES: O=C(Cn1cnc2cc([N+](=O)[O-])ccc2c1=O)Nc1ccccc1Cl [9b, N-(2-Chlorophenyl)-2-(7-nitro-4-oxoquinazolin-3(4H)-yl)acetamide]
Toxicity % ([1]; HEK-293, 0.195 umol/ml): 1.903%
Toxicity % ([1]; HEK-293, 0.391 umol/ml): 23.13%
Toxicity % ([1]; HEK-293, 0.781 umol/ml): 37.87%
Toxicity % ([1]; HEK-293, 1.563 umol/ml): 47.29%
Toxicity % ([1]; HEK-293, 3.125 umol/ml): 70.33%
Toxicity % ([1]; HEK-293, 6.25 umol/ml): 82.82%
Toxicity % ([1]; HEK-293, 12.5 umol/ml): 91.22%
Toxicity % ([1]; HEK-293, 25 umol/ml): 93.7%
selectivity, cancer cells vs normal human kidney cells (fold) ([1]; HEK-293 vs K-562): 9 fold
selectivity, cancer cells vs normal human kidney cells (fold) ([1]; HEK-293 vs MCF-7): 8.4 fold
IC50 ([1]; Homo sapiens, HEK293, raw data, HEK-293): 1.75 µM
IC50 at 3 days ([2]; HEK-293 cells (normal human embryonic kidney cells), MTT, HEK-293, read-out: Cytotoxicity against normal cell IC50 HEK-293): 1.747 ± 0.0026 µM
viability at 3 days, 0.195 umol/ml ([2]; HEK-293 cells (normal human embryonic kidney), HEK-293, 0.195 umol/ml): 98.1%
viability at 3 days, 0.391 umol/ml ([2]; HEK-293 cells (normal human embryonic kidney), HEK-293, 0.391 umol/ml): 76.9%
viability at 3 days, 0.781 umol/ml ([2]; HEK-293 cells (normal human embryonic kidney), HEK-293, 0.781 umol/ml): 62.1%
viability at 3 days, 1.563 umol/ml ([2]; HEK-293 cells (normal human embryonic kidney), HEK-293, 1.563 umol/ml): 52.7%
viability at 3 days, 3.125 umol/ml ([2]; HEK-293 cells (normal human embryonic kidney), HEK-293, 3.125 umol/ml): 29.7%
viability at 3 days, 6.25 umol/ml ([2]; HEK-293 cells (normal human embryonic kidney), HEK-293, 6.25 umol/ml): 17.2%
viability at 3 days, 12.5 umol/ml ([2]; HEK-293 cells (normal human embryonic kidney), HEK-293, 12.5 umol/ml): 8.78%
viability at 3 days, 25 umol/ml ([2]; HEK-293 cells (normal human embryonic kidney), HEK-293, 25 umol/ml): 6.3%
viability at 0.195 µmol ([3]; K-562, 0.195 umol): 47.5%
cytotoxicity at 0.195 µmol ([3]; K-562, 0.195 umol, read-out: Toxicity %): 52.5%
viability at 0.391 µmol ([3]; K-562, 0.391 umol): 37.8%
cytotoxicity at 0.391 µmol ([3]; K-562, 0.391 umol, read-out: Toxicity %): 62.2%
viability at 0.781 µmol ([3]; K-562, 0.781 umol): 25.5%
cytotoxicity at 0.781 µmol ([3]; K-562, 0.781 umol, read-out: Toxicity %): 74.5%
viability at 1.563 µmol ([3]; K-562, 1.563 umol): 13.6%
cytotoxicity at 1.563 µmol ([3]; K-562, 1.563 umol, read-out: Toxicity %): 86.4%
viability at 3.125 µmol ([3]; K-562, 3.125 umol): 8.05%
cytotoxicity at 3.125 µmol ([3]; K-562, 3.125 umol, read-out: Toxicity %): 92%
viability at 6.25 µmol ([3]; K-562, 6.25 umol): 8.5%
cytotoxicity at 6.25 µmol ([3]; K-562, 6.25 umol, read-out: Toxicity %): 91.5%
viability at 12.5 µmol ([3]; K-562, 12.5 umol): 6.86%
cytotoxicity at 12.5 µmol ([3]; K-562, 12.5 umol, read-out: Toxicity %): 93.1%
viability at 25 µmol ([3]; K-562, 25 umol): 6.2%
cytotoxicity at 25 µmol ([3]; K-562, 25 umol, read-out: Toxicity %): 93.8%
IC50 ([3]; MTT, K-562, read-out: Cytotoxicity against cancer cells IC50 K-562): 0.19 ± 0.0037 µM
% Sub-G1 ([4]; HepG-2, cytotoxic concentration, 24 h, control 68.12): 94.68%
% S ([4]; HepG-2, control 2.23): 0.19%
% G2/M ([4]; HepG-2, control 6.52): 0.24%
% G1 ([4]; HepG-2, control 23.14): 4.89%
Caspase-9 ± SE [5]: 7.31 ± 0.93 ng/L
Caspase-9 ± SE ([5]; listed as N5): 7.31 ng/L
caspase-9 expression level, fold increase ([5]; HepG-2, vs control cells): no apoptotic effect
IL-6R ± SE ([6]; HepG-2, at IC50 concentrations, control 44.10): 28.78 ± 1.23 ng/L
IL-6R protein level ([6]; HepG-2, control 44.10%): 28.78 ng/L
IL-6 ±SE ([6]; raw data, HepG2, control 44.10): 19.54 ng/L
TNF-alpha ±SE ([7]; HepG-2, at IC50 concentrations): 27.34 ± 1.95 ng/L
TNF-alpha ±SE ([7]; raw data, HepG2): 14.37 ng/L
Caspase-3 ± SE [8]: 1.08 ± 0.028 ng/mL
Caspase-3 ± SE ([8]; listed as N5): 1.08 ng/mL
caspase-3 expression level, fold increase ([8]; HepG-2, vs control cells): 2.35 fold
viability at 0.195 µg/mL ([10]; HepG-2, 0.195 ug/ml): 49.7%
cytotoxicity at 0.195 µg/mL ([10]; HepG-2, 0.195 ug/ml, read-out: Toxicity %): 50.3%
viability at 0.391 µg/mL ([10]; HepG-2, 0.391 ug/ml): 37.3%
cytotoxicity at 0.391 µg/mL ([10]; HepG-2, 0.391 ug/ml, read-out: Toxicity %): 62.7%
viability at 0.781 µg/mL ([10]; HepG-2, 0.781 ug/ml): 27.7%
cytotoxicity at 0.781 µg/mL ([10]; HepG-2, 0.781 ug/ml, read-out: Toxicity %): 72.3%
viability at 1.563 µg/mL ([10]; HepG-2, 1.563 ug/ml): 13%
cytotoxicity at 1.563 µg/mL ([10]; HepG-2, 1.563 ug/ml, read-out: Toxicity %): 87%
viability at 3.125 µg/mL ([10]; HepG-2, 3.125 ug/ml): 9.93%
cytotoxicity at 3.125 µg/mL ([10]; HepG-2, 3.125 ug/ml, read-out: Toxicity %): 90.1%
viability at 6.25 µg/mL ([10]; HepG-2, 6.25 ug/ml): 7.8%
cytotoxicity at 6.25 µg/mL ([10]; HepG-2, 6.25 ug/ml, read-out: Toxicity %): 92.2%
viability at 12.5 µg/mL ([10]; HepG-2, 12.5 ug/ml): 6.7%
cytotoxicity at 12.5 µg/mL ([10]; HepG-2, 12.5 ug/ml, read-out: Toxicity %): 93.3%
viability at 25 µg/mL ([10]; HepG-2, 25 ug/ml): 5.93%
cytotoxicity at 25 µg/mL ([10]; HepG-2, 25 ug/ml, read-out: Toxicity %): 94.1%
IC50 ([10]; MTT, HepG-2, read-out: Cytotoxicity against cancer cells IC50 HepG-2): 0.194 ± 0.0066 µM
viability at 0.195 µmol ([12]; MCF-7, 0.195 umol): 52.1%
cytotoxicity at 0.195 µmol ([12]; MCF-7, 0.195 umol, read-out: Toxicity %): 47.9%
viability at 0.391 µmol ([12]; MCF-7, 0.391 umol): 22.7%
cytotoxicity at 0.391 µmol ([12]; MCF-7, 0.391 umol, read-out: Toxicity %): 77.3%
viability at 0.781 µmol ([12]; MCF-7, 0.781 umol): 15.6%
cytotoxicity at 0.781 µmol ([12]; MCF-7, 0.781 umol, read-out: Toxicity %): 84.4%
viability at 1.563 µmol ([12]; MCF-7, 1.563 umol): 11.9%
cytotoxicity at 1.563 µmol ([12]; MCF-7, 1.563 umol, read-out: Toxicity %): 88.1%
viability at 3.125 µmol ([12]; MCF-7, 3.125 umol): 9.45%
cytotoxicity at 3.125 µmol ([12]; MCF-7, 3.125 umol, read-out: Toxicity %): 90.5%
viability at 6.25 µmol ([12]; MCF-7, 6.25 umol): 8%
cytotoxicity at 6.25 µmol ([12]; MCF-7, 6.25 umol, read-out: Toxicity %): 92%
viability at 12.5 µmol ([12]; MCF-7, 12.5 umol): 7.26%
cytotoxicity at 12.5 µmol ([12]; MCF-7, 12.5 umol, read-out: Toxicity %): 92.7%
viability at 25 µmol ([12]; MCF-7, 25 umol): 6.77%
cytotoxicity at 25 µmol ([12]; MCF-7, 25 umol, read-out: Toxicity %): 93.2%
IC50 ([12]; MTT, MCF-7, read-out: Cytotoxicity against cancer cells IC50 MCF-7): 0.209 ± 0.0037 µM
